In PubChem BioAssay (NCI):
Values joined by “and” are separate entries in the source; they are usually repeats but may differ in a detail not shown here. Equal entries are not always repeated.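 Test compounds were applied to cells in 96-well plates for 48 hours at 5 doses. GI50 is the concentration that inhibits growth by half. TGI marks complete inhibition of growth.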

How the values were obtained:
Assay in all cases: DTP human tumour cell line panel, 48 h
SR leukemia = system: SR leukemia
SNB-75 CNS = system: SNB-75 CNS
TK-10 renal = system: TK-10 renal
BT-549 breast = system: BT-549 breast
SW-620 colon = system: SW-620 colon
NCI-H460 lung = system: NCI-H460 lung
T-47D breast = system: T-47D breast
SK-OV-3 ovarian = system: SK-OV-3 ovarian
UO-31 renal = system: UO-31 renal
K-562 leukemia = system: K-562 leukemia
CAKI-1 renal = system: CAKI-1 renal
A549 NSCLC = system: A549 NSCLC
HCT-15 colon = system: HCT-15 colon
SF-295 CNS = system: SF-295 CNS
RXF 393 renal = system: RXF 393 renal
NCI/ADR-RES ovarian = system: NCI/ADR-RES ovarian
OVCAR-5 ovarian = system: OVCAR-5 ovarian
IGROV1 ovarian = system: IGROV1 ovarian
SK-MEL-28 melanoma = system: SK-MEL-28 melanoma
MDA-MB-435 = system: MDA-MB-435
M14 melanoma = system: M14 melanoma
NCI-H522 lung = system: NCI-H522 lung
SF-539 CNS = system: SF-539 CNS
DU-145 prostate = system: DU-145 prostate
OVCAR-8 ovarian = system: OVCAR-8 ovarian
A498 renal = system: A498 renal
HL-60(TB) leukemia = system: HL-60(TB) leukemia
OVCAR-4 ovarian = system: OVCAR-4 ovarian
UACC-257 melanoma = system: UACC-257 melanoma
SNB-19 CNS = system: SNB-19 CNS
LOX IMVI melanoma = system: LOX IMVI melanoma
MOLT-4 leukemia = system: MOLT-4 leukemia
RPMI-8226 leukemia = system: RPMI-8226 leukemia
SK-MEL-2 melanoma = system: SK-MEL-2 melanoma
MDA-MB-231 breast = system: MDA-MB-231 breast
HOP-92 NSCLC = system: HOP-92 NSCLC
786-0 renal = system: 786-0 renal
NCI-H23 lung = system: NCI-H23 lung
HOP-62 NSCLC = system: HOP-62 NSCLC
MALME-3M melanoma = system: MALME-3M melanoma
U251 CNS = system: U251 CNS
HS 578T breast = system: HS 578T breast
SF-268 CNS = system: SF-268 CNS
OVCAR-3 ovarian = system: OVCAR-3 ovarian
NCI-H226 lung = system: NCI-H226 lung
CCRF-CEM leukemia = system: CCRF-CEM leukemia
HT29 colon = system: HT29 colon
HCC-2998 colon = system: HCC-2998 colon
MCF7 breast = system: MCF7 breast
ACHN renal = system: ACHN renal
COLO 205 colon = system: COLO 205 colon
HCT-116 colon = system: HCT-116 colon
KM12 colon = system: KM12 colon
SK-MEL-5 melanoma = system: SK-MEL-5 melanoma
EKVX NSCLC = system: EKVX NSCLC
SN12C renal = system: SN12C renal
UACC-62 melanoma = system: UACC-62 melanoma
PC-3 prostate = system: PC-3 prostate

Compound: CN1CCN(c2ccc3nc(-c4c(N)c5c(F)cccc5[nH]c4=O)[nH]c3c2)CC1
- GI50 (SR leukemia): 472 nM and 284 nM and 502 nM
- TGI (SR leukemia): 10200 nM and 1440 nM and 7970 nM
- GI50 (SNB-75 CNS): 695 nM and 399 nM and 994 nM
- TGI (SNB-75 CNS): 2640 nM and 8040 nM and 5680 nM
- GI50 (TK-10 renal): 1140 nM and 1010 nM and 3560 nM
- TGI (TK-10 renal): 4950 nM and > 4670 nM and 16800 nM
- GI50 (BT-549 breast): 1620 nM and 501 nM and 1260 nM
- TGI (BT-549 breast): 10200 nM and > 2970 nM and 5950 nM
- GI50 (SW-620 colon): 533 nM and 379 nM and 576 nM
- TGI (SW-620 colon): 1940 nM and 3210 nM and 2650 nM
- GI50 (NCI-H460 lung): 369 nM and 344 nM and 454 nM
- TGI (NCI-H460 lung): 1720 nM and 1790 nM and 2200 nM
- GI50 (T-47D breast): 4040 nM and 12000 nM
- TGI (T-47D breast): 10100 nM and > 6230 nM and 31900 nM
- GI50 (SK-OV-3 ovarian): 379 nM and 487 nM and 515 nM
- GI50 (UO-31 renal): 347 nM and 224 nM and 232 nM
- TGI (UO-31 renal): 1910 nM and > 2800 nM and 1540 nM
- GI50 (K-562 leukemia): 598 nM and 528 nM and 932 nM
- TGI (K-562 leukemia): 2620 nM and 2320 nM and 4910 nM
- GI50 (CAKI-1 renal): 213 nM and 282 nM and 387 nM
- TGI (CAKI-1 renal): 1570 nM and > 10000 nM and 12500 nM
- GI50 (A549 NSCLC): 594 nM and 451 nM and 674 nM
- TGI (A549 NSCLC): 2150 nM and > 3740 nM and 3860 nM
- GI50 (HCT-15 colon): 495 nM and 419 nM and 485 nM
- TGI (HCT-15 colon): 5430 nM and > 7050 nM and 7760 nM
- GI50 (SF-295 CNS): 2410 nM and 1090 nM and 3140 nM
- TGI (SF-295 CNS): 8100 nM and > 6690 nM and 8950 nM
- GI50 (RXF 393 renal): 216 nM and 212 nM and 282 nM
- TGI (RXF 393 renal): 1190 nM and 632 nM and 1180 nM
- GI50 (NCI/ADR-RES ovarian): 1770 nM and 2640 nM and 2470 nM
- TGI (NCI/ADR-RES ovarian): 7180 nM and > 10000 nM and 13000 nM
- GI50 (OVCAR-5 ovarian): 1420 nM and 1030 nM and 1760 nM
- TGI (OVCAR-5 ovarian): 3940 nM and > 6960 nM and 6940 nM
- GI50 (IGROV1 ovarian): 325 nM and 272 nM and 302 nM
- TGI (IGROV1 ovarian): 4940 nM and > 3980 nM and 11800 nM
- GI50 (SK-MEL-28 melanoma): 1510 nM and 801 nM and 1430 nM
- TGI (SK-MEL-28 melanoma): 2960 nM and 2790 nM and 3020 nM
- GI50 (MDA-MB-435): 974 nM and 535 nM and 1080 nM
- TGI (MDA-MB-435): 2340 nM and 1850 nM and 2610 nM
- GI50 (M14 melanoma): 410 nM and 340 nM and 445 nM
- TGI (M14 melanoma): 1710 nM and 1540 nM and 1930 nM
- GI50 (NCI-H522 lung): 999 nM and 398 nM and 2290 nM
- TGI (NCI-H522 lung): 2870 nM and > 2300 nM and 11700 nM
- GI50 (SF-539 CNS): 566 nM and 338 nM and 487 nM
- TGI (SF-539 CNS): 1960 nM and 1210 nM and 1750 nM
- GI50 (DU-145 prostate): 991 nM and 547 nM and 1060 nM
- TGI (DU-145 prostate): 2970 nM and > 6530 nM and 9590 nM
- GI50 (OVCAR-8 ovarian): 1260 nM and 874 nM and 1670 nM
- TGI (OVCAR-8 ovarian): 3210 nM and > 5170 nM and 12500 nM
- GI50 (A498 renal): 224 nM and 144 nM and 135 nM
- GI50 (HL-60(TB) leukemia): 860 nM and 314 nM and 1200 nM
- TGI (HL-60(TB) leukemia): 2800 nM and 2360 nM and 3120 nM
- GI50 (OVCAR-4 ovarian): 622 nM and 498 nM and 646 nM
- TGI (OVCAR-4 ovarian): 4550 nM and > 10000 nM and 10900 nM
- GI50 (UACC-257 melanoma): 1690 nM and 830 nM and 2540 nM
- TGI (UACC-257 melanoma): 3260 nM and 2390 nM and 8320 nM
- GI50 (SNB-19 CNS): 1900 nM and > 1970 nM and 2560 nM
- TGI (SNB-19 CNS): 8890 nM and > 10000 nM and 12600 nM
- GI50 (LOX IMVI melanoma): 478 nM and 410 nM and 769 nM
- TGI (LOX IMVI melanoma): 1860 nM and 1480 nM and 2140 nM
- GI50 (MOLT-4 leukemia): 392 nM and 322 nM and 420 nM
- TGI (MOLT-4 leukemia): 3600 nM and 1520 nM and 4540 nM
- GI50 (RPMI-8226 leukemia): 1170 nM and 909 nM and 1570 nM
- TGI (RPMI-8226 leukemia): 3740 nM and > 2770 nM and 4530 nM
- GI50 (SK-MEL-2 melanoma): 419 nM and 400 nM and 936 nM
- TGI (SK-MEL-2 melanoma): 5410 nM and > 2240 nM and 22800 nM
- GI50 (MDA-MB-231 breast): 1320 nM and 1140 nM and 2050 nM
- TGI (MDA-MB-231 breast): 5000 nM and > 4190 nM and 8570 nM
- GI50 (HOP-92 NSCLC): 621 nM and 422 nM and 645 nM
- TGI (HOP-92 NSCLC): 4560 nM and > 2930 nM and 5820 nM
- GI50 (786-0 renal): 1200 nM and 695 nM and 946 nM
- TGI (786-0 renal): 3930 nM and > 3840 nM and 3070 nM
- GI50 (NCI-H23 lung): 1530 nM and 900 nM and 2050 nM
- TGI (NCI-H23 lung): 6440 nM and > 3600 nM and 11100 nM
- GI50 (HOP-62 NSCLC): 1080 nM and 829 nM and 1580 nM
- TGI (HOP-62 NSCLC): 2700 nM and > 3730 nM and 8180 nM
- GI50 (MALME-3M melanoma): 901 nM and 498 nM and 547 nM
- TGI (MALME-3M melanoma): 2460 nM and 1750 nM and 1970 nM
- GI50 (U251 CNS): 1020 nM and 652 nM and 780 nM
- TGI (U251 CNS): 2450 nM and > 3320 nM and 3490 nM
- GI50 (HS 578T breast): 791 nM and 286 nM and 974 nM
- TGI (HS 578T breast): 5770 nM and > 2370 nM and 9750 nM
- GI50 (SF-268 CNS): 1390 nM and 717 nM and 1650 nM
- TGI (SF-268 CNS): 4160 nM and > 2830 nM and 10100 nM
- GI50 (OVCAR-3 ovarian): 1470 nM and 1270 nM and 3200 nM
- TGI (OVCAR-3 ovarian): 2960 nM and > 8270 nM and 8900 nM
- GI50 (NCI-H226 lung): 525 nM and 476 nM and 537 nM
- TGI (NCI-H226 lung): 8360 nM and > 6970 nM and 17600 nM
- GI50 (CCRF-CEM leukemia): 834 nM and 684 nM and 1010 nM
- TGI (CCRF-CEM leukemia): 7930 nM and > 5890 nM and 9410 nM
- GI50 (HT29 colon): 909 nM and 663 nM and 1430 nM
- TGI (HT29 colon): 2890 nM and > 5420 nM and 11200 nM
- GI50 (HCC-2998 colon): 1330 nM and 867 nM and 1360 nM
- TGI (HCC-2998 colon): 5240 nM and > 4090 nM and 6580 nM
- GI50 (MCF7 breast): 875 nM and 710 nM and 1210 nM
- TGI (MCF7 breast): 2780 nM and > 4820 nM and 6760 nM
- GI50 (ACHN renal): 335 nM and 342 nM and 371 nM
- TGI (ACHN renal): 1830 nM and > 6360 nM and 4740 nM
- GI50 (COLO 205 colon): 965 nM and 496 nM and 2260 nM
- TGI (COLO 205 colon): 2310 nM and > 2040 nM and 17200 nM
- GI50 (HCT-116 colon): 619 nM and 466 nM and 992 nM
- TGI (HCT-116 colon): 1930 nM and 4350 nM and 2400 nM
- GI50 (KM12 colon): 35.7 nM and 40.6 nM and 40.7 nM
- TGI (KM12 colon): 2070 nM and > 3510 nM and 7500 nM
- GI50 (SK-MEL-5 melanoma): 1330 nM and 604 nM and 1720 nM
- TGI (SK-MEL-5 melanoma): 2640 nM and 1290 nM and 3160 nM
- GI50 (EKVX NSCLC): 2380 nM and > 2440 nM and 4230 nM
- TGI (EKVX NSCLC): 9650 nM and > 7220 nM and 16200 nM
- GI50 (SN12C renal): 413 nM and 393 nM and 620 nM
- TGI (SN12C renal): 5300 nM and > 5120 nM and 5820 nM
- GI50 (UACC-62 melanoma): 1190 nM and 1280 nM and 2130 nM
- TGI (UACC-62 melanoma): 6050 nM and > 2900 nM and 10000 nM
- GI50 (PC-3 prostate): 1160 nM and 1020 nM and 1730 nM
- TGI (PC-3 prostate): 7100 nM and > 7420 nM and 8590 nM
